# Reference: ChEMBL document CHEMBL5678818, “Discovery of potent SOS1 inhibitors that block RAS activation via disruption of the RAS-SOS1 interaction” (Proc Natl Acad Sci U S A, 2019)
# What was measured:
# [1] = target: T1, Aurora kinase C (Homo sapiens) (UniProt Q9UQB9); experiment: Inhibition of AURKC (unknown origin) assessed as residual activity at 100 nM by KINOMEscan analysis relative to control
# T1 sequence (whole entry): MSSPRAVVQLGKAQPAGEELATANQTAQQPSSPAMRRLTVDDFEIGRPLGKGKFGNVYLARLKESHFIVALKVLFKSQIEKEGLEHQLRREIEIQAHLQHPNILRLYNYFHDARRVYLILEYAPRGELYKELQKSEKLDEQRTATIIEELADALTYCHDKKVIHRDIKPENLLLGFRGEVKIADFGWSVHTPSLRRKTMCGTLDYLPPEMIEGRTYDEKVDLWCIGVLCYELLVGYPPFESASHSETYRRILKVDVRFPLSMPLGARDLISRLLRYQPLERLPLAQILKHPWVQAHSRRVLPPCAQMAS
# [2] = target: Bone morphogenetic protein receptor type-1A (Homo sapiens) (UniProt P36894); experiment: Inhibition of BMPR1A (unknown origin) assessed as residual activity at 100 nM by KINOMEscan analysis relative to control
# Bone morphogenetic protein receptor type-1A (Homo sapiens), sequence (P36894 whole entry, canonical isoform): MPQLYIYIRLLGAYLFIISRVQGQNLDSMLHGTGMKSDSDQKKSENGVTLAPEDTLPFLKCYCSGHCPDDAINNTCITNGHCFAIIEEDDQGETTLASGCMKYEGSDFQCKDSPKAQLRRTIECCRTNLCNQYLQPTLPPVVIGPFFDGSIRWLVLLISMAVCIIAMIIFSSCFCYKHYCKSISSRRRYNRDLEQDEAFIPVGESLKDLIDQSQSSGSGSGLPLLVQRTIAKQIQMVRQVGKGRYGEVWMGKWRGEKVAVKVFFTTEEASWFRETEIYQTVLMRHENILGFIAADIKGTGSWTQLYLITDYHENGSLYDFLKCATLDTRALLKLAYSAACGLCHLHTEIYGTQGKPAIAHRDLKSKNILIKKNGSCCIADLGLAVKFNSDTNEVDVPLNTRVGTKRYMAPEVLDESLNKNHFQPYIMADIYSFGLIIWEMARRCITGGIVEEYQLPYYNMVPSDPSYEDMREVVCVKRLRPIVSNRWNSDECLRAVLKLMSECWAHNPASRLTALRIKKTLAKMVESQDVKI
# [3] = target: Casein kinase I isoform gamma-2 (Homo sapiens) (UniProt P78368); experiment: Inhibition of CSNK1G2 (unknown origin) assessed as residual activity at 100 nM by KINOMEscan analysis relative to control
# Casein kinase I isoform gamma-2 (Homo sapiens), sequence (P78368 whole entry, looked up, canonical isoform): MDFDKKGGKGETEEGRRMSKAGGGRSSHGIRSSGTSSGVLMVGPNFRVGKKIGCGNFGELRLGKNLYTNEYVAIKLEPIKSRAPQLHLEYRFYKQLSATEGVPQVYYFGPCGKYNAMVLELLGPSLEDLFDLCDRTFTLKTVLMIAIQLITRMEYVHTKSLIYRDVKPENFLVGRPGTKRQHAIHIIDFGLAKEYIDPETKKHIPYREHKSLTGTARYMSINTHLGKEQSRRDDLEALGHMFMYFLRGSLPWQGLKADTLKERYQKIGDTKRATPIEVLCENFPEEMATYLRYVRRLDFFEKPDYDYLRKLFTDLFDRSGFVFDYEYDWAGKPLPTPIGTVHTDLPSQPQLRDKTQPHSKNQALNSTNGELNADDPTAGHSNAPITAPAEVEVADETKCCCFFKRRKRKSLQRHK
# [4] = target: Leukocyte tyrosine kinase receptor (Homo sapiens) (UniProt P29376); experiment: Inhibition of LTK (unknown origin) assessed as residual activity at 100 nM by KINOMEscan analysis relative to control
# Leukocyte tyrosine kinase receptor (Homo sapiens), sequence (P29376 whole entry): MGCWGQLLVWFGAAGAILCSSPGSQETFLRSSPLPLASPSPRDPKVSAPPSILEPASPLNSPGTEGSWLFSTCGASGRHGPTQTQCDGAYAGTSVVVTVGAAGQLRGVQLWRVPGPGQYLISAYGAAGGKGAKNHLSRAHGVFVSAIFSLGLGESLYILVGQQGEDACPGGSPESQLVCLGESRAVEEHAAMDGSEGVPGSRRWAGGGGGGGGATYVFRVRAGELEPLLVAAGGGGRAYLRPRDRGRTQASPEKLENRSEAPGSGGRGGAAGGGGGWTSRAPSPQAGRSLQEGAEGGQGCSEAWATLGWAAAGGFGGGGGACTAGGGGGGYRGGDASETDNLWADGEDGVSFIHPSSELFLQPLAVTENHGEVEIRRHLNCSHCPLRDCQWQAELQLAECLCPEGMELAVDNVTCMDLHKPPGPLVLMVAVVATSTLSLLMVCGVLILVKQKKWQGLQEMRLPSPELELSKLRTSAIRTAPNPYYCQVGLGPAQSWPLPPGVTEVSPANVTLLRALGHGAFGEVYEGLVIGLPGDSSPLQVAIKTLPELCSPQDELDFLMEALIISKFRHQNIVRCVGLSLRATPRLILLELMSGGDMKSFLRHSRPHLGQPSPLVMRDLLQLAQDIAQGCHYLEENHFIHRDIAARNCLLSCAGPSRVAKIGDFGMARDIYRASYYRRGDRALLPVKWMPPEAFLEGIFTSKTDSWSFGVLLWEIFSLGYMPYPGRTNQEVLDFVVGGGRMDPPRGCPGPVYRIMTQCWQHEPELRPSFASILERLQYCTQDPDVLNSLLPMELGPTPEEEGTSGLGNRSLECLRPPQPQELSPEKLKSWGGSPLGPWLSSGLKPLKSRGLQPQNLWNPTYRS
# [5] = target: T2, Serine/threonine-protein kinase Nek10 (Homo sapiens) (UniProt Q6ZWH5); experiment: Inhibition of NEK10 (unknown origin) assessed as residual activity at 100 nM by KINOMEscan analysis relative to control
# T2 sequence (whole entry): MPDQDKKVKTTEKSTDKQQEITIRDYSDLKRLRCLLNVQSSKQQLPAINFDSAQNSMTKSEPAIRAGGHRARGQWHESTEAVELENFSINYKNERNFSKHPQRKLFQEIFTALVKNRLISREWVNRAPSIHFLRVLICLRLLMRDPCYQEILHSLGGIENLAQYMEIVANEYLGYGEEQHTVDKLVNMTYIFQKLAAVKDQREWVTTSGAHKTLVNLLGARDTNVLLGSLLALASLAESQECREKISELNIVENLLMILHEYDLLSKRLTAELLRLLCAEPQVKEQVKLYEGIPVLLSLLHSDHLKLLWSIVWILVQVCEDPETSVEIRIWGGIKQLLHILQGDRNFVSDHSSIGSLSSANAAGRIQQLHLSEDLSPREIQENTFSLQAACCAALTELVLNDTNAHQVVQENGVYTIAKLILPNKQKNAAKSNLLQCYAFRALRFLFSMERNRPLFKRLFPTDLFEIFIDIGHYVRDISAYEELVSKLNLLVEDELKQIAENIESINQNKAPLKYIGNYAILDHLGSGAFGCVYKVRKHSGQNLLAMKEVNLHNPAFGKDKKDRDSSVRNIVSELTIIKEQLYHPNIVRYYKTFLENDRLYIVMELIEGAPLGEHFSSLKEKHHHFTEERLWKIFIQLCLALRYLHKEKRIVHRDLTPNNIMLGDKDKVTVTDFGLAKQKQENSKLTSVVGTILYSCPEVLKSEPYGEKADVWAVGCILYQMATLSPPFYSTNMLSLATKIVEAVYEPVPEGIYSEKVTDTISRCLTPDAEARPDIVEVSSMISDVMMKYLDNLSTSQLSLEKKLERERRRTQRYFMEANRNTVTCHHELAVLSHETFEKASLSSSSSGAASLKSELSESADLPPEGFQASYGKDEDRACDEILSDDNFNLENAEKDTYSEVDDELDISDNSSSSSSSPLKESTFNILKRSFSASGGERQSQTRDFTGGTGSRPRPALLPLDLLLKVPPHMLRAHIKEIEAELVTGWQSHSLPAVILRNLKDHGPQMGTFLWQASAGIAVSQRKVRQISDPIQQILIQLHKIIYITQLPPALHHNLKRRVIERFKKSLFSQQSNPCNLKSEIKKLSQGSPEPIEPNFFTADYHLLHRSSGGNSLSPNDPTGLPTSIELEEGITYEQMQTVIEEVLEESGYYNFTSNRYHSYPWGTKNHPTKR
# [6] = target: Serine/threonine-protein kinase PAK 2 (Homo sapiens) (UniProt Q13177); experiment: Inhibition of PAK2 (unknown origin) assessed as residual activity at 100 nM by KINOMEscan analysis relative to control
# Serine/threonine-protein kinase PAK 2 (Homo sapiens), sequence (Q13177 whole entry): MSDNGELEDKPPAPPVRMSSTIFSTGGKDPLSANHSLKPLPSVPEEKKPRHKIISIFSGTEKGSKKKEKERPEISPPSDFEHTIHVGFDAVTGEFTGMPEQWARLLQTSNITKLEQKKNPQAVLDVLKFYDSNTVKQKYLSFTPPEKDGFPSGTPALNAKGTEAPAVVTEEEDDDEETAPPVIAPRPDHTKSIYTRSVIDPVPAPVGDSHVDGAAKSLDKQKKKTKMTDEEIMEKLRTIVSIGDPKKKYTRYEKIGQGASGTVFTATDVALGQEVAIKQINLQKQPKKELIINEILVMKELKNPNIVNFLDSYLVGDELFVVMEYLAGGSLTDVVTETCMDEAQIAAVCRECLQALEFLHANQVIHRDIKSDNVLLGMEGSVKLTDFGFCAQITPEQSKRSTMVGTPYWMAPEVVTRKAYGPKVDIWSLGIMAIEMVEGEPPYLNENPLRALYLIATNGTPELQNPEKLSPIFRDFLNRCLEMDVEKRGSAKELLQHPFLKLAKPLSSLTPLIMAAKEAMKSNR
# [7] = target: Cyclin-dependent kinase 16 (Homo sapiens) (UniProt Q00536); experiment: Inhibition of PCTK1 (unknown origin) assessed as residual activity at 100 nM by KINOMEscan analysis relative to control
# Cyclin-dependent kinase 16 (Homo sapiens), sequence (Q00536 whole entry, canonical isoform): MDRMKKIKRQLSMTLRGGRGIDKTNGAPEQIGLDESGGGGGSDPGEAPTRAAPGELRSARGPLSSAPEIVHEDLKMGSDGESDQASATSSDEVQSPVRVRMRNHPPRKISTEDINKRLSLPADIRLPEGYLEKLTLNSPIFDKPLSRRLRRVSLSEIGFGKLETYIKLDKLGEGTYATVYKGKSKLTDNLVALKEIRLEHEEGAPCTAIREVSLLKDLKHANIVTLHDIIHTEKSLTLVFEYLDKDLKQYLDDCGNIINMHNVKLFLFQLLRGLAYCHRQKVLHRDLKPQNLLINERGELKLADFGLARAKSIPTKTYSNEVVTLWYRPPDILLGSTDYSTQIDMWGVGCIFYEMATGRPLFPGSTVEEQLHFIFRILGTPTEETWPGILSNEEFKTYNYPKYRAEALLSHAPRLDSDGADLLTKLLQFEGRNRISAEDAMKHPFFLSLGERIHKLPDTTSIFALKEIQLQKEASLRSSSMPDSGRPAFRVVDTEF
# [8] = tested on: Phosphatidylinositol 4,5-bisphosphate 3-kinase catalytic subunit alpha isoform (Homo sapiens), P42336 [E542K]; experiment: Inhibition of PIK3CA E542K mutant (unknown origin) assessed as residual activity at 100 nM by KINOMEscan analysis relative to control
# Phosphatidylinositol 4,5-bisphosphate 3-kinase catalytic subunit alpha isoform (Homo sapiens), P42336 [E542K], sequence (P42336 whole entry E542K, canonical isoform): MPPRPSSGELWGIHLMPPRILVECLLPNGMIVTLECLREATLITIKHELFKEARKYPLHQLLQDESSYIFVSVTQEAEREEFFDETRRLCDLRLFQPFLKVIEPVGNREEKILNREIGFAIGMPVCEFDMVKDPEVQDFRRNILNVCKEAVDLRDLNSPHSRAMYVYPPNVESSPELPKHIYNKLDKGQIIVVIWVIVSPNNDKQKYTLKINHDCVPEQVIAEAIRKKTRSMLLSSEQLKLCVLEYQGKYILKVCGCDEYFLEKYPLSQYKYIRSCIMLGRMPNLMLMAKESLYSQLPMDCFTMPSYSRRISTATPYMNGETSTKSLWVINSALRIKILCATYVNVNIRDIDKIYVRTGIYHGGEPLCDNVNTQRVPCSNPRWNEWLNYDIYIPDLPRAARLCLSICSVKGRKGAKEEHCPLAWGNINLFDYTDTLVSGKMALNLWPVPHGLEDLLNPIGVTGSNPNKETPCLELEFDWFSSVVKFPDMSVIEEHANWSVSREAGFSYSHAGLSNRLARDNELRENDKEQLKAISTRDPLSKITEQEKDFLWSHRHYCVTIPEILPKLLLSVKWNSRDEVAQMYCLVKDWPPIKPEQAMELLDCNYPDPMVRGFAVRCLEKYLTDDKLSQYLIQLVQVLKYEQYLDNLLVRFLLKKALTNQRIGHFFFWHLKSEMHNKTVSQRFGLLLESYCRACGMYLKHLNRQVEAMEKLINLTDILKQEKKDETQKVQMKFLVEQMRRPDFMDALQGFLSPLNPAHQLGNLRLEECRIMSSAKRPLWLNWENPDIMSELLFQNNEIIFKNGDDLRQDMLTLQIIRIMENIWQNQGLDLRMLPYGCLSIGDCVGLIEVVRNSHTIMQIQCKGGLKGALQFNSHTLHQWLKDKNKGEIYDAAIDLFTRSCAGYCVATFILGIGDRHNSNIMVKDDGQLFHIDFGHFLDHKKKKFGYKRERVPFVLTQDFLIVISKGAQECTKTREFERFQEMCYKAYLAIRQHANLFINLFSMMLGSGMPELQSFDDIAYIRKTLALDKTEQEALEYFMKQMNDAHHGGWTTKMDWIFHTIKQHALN
# [9] = target: Tyrosine-protein kinase SYK (Homo sapiens) (UniProt P43405); experiment: Inhibition of SYK (unknown origin) assessed as residual activity at 100 nM by KINOMEscan analysis relative to control
# [10] = target: Tyrosine-protein kinase Yes (Homo sapiens) (UniProt P07947); experiment: Inhibition of YES (unknown origin) assessed as residual activity at 100 nM by KINOMEscan analysis relative to control
# Tyrosine-protein kinase Yes (Homo sapiens), sequence (P07947 2-543 limits assumed): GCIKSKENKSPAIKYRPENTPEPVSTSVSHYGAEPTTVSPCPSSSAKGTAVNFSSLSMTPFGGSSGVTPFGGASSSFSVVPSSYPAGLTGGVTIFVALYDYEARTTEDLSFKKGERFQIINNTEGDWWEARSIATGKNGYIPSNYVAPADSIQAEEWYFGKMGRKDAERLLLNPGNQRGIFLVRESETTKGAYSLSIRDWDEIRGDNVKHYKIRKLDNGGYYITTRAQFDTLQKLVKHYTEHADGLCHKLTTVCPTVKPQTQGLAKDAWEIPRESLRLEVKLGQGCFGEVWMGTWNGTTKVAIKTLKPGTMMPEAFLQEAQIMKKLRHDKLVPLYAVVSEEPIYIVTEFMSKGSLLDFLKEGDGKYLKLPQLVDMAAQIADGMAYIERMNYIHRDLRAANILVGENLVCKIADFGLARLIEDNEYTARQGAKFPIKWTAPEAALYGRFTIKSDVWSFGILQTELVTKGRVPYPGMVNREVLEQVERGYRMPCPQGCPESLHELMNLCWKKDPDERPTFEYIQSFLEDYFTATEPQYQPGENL
structure (smiles),measurement,setting,value
COc1cc2ncnc(N[C@H](C)c3cccc4ccccc34)c2cc1OC,Activity,[1],78%
same,Activity,[2],71%
same,Activity,[3],91%
same,Activity,[4],97%
same,Activity,[5],75%
same,Activity,[6],100%
same,Activity,[7],96%
same,Activity,[8],74%
same,Activity,[9],100%
same,Activity,[10],100%
